Values quoted from earlier work, collected in patent publication US9468638B2, “Itraconazole formulations” (Texas Southern University, priority 2010, dated 2016).
Converted amounts (≈) assume the structure as drawn. Like-named read-outs stand apart in the source and are kept apart here.

Legend:
[1] = in vivo, iv
[2] = rat, in vivo
[3] = human, in vivo, iv
[4] = not given; remark: listed apart in the source
[5] = pH=8.1

Row | reduced clearance of hydroxylpropyl-β-cyclodextrin [3] | water solubility (neutral pH) | water solubility (pH=1) | solubility in PEG 400 ([4]; PEG 400) | solubility in Tween 20 ([4]; Tween 20) | n-octanol/water partition coefficient log Po/w [5] | Compound | toxicity that led to discontinuation of Sporanox I.V. Injection [1] | carcinogenicity finding [2]
1 | 6 fold | – | – | – | – | – | hydroxylpropyl-β-cyclodextrin | renal toxicity | produced pancreatic adenocarcinomas
2 | – | about 1 ng/mL | approximately 4 mcg/mL | 2140 µg/mL (≈ 3030 µM) | 1190 µg/mL (≈ 1690 µM) | 5.66 | CCC(C)n1ncn(-c2ccc(N3CCN(c4ccc(OCC5COC(Cn6cncn6)(c6ccc(Cl)cc6Cl)O5)cc4)CC3)cc2)c1=O (centres unmarked) [Itraconazole] | – | –
